In ChEMBL document CHEMBL3132742, “Hydrogen sulfide donors in research and drug development” (2014):

What was measured:
[1] = tested on: HT-29; test: Anticancer activity against human HT-29 cells xenografted in mouse model assessed as reduction in tumor volume relative to control; type: functional
[2] = tested on: HT-29; test: Anticancer activity against human HT-29 cells xenografted in mouse model assessed as suppression of cancer cell growth relative to control; type: functional

O=C(CCCO[N+](=O)[O-])Oc1ccccc1C(=O)Oc1ccc(-c2cc(=S)ss2)cc1
inhibition (INH) [1]: 85% | fold change (FC) [2]: 9000
